Bridge positions count the residues as written; N and C are the ends. Ends that are not written are not given here. I, II: the chains in the order shown. * marks the point of attachment. Palmitoyl = CCCCCCCCCCCCCCCC(=O)*
Columns and labels:
[1] = system: Smad2 phosphorylation (intracellular TGF-β1 signaling) in human chondrocytes; test: Western blot of phosphorylated Smad2 after 4 h treatment; format: cell-based; conditions: for p-Smad2 activation: 50 μM, 4 h
Protocol: (§1) For western blot of 4 h PA treatments, cells were seeded in 6-well plates at a density of 600,000 cells/well and cultured for 24 h. […] Cells were then treated with PA in solution for 4 h in vitro. For western blot of 3-day PA treatments, cells were seeded in 6-well plates at a density of 230,000 cells/well and cultured for 24 h. Cells were then treated with PA in solution for 3 days in vitro.
(§2) Protein was extracted from cells using Halt Protease and Phosphatase Inhibitor Cocktail (Thermo Scientific) and a BCA assay (Thermo Scientific) was performed to determine protein content of each sample. Cell protein was loaded into and separated using a 4-20% SDS-PAGE gel (Bio-Rad). It was then electrotransferred from the gel to a nitrocellulose membrane (Bio-Rad). The membranes were blocked with 10% milk solution (Bio-Rad) for 30 minutes followed by an overnight incubation with primary antibodies at 4° C. The following primary antibodies were used: rabbit anti-pSmad2 (1:1000, Cell Signaling), rabbit anti-Smad2 (1:1000, Cell Signaling), rabbit anti-Sox9 (1:500, Abcam), mouse anti-Aggrecan (1:500, ThermoFisher), rabbit anti-COMP/Cartilage oligomeric matrix protein (1:500, Abcam), mouse anti-Collagen II (1:500, ThermoFisher), and mouse anti-Actin (1:1000, Novus Bio). Membranes were then incubated with their corresponding secondary HRP-conjugated antibodies (1:1000, ThermoFisher). Protein signals were detected using Radiance Bioluminescent ECL substrate (Azure Biosystems). Densitometry analysis, standardized to total receptor content or actin as a control for protein loading, was performed using ImageJ software. For quantification, experimental triplicate samples were analyzed, and two different experiments were conducted.

[2] = system: human chondrocytes encapsulated in PA hydrogels; test: F-actin ICC and confocal microscopy of chondrocytes encapsulated in PA gels; format: cell-based; conditions: three days in vitro
Protocol: Fixed samples were permeabilized and blocked in a solution of 0.1% (v/v) Triton X-100 and 1% normal horse serum (Invitrogen) for 2 hours at room temperature. Samples were incubated with primary antibodies overnight at 4° C. The following primary antibodies were used: rabbit anti-Sox9 (1:500, Abcam), mouse anti-Aggrecan (1:500, ThermoFisher), mouse anti-Collagen II (1:500, ThermoFisher), and mouse anti-Nuclei (1:500, Sigma-Aldrich). The next day, samples were incubated with AlexaFluor 488 secondary antibody, AlexaFluor 555 secondary antibody, Phalloidin AlexaFluor 488, and/or Phalloidin AlexaFluor 633 (1:1000, Invitrogen) for 2-3 h at room temperature. For 2D cell culture, samples were then incubated with DAPI (1:1000, Invitrogen) for 10 minutes at room temperature. If not already on a glass coverslip, samples were mounted with Immu-Mount (Thermo Scientific) and imaged on a Nikon A1R Spectral microscope. Image analysis was performed using ImageJ software.
Chondrocytes were trypsinized and resuspended in growth media for counting, and then pelleted and resuspended to 6×10^7 cells/mL in growth media. The cell solution was mixed 1:2 v/v with sterile PA solution prepared at 3 wt % in 30 mM NaCl. For gels also encapsulating rhTGF-β1 protein (R&D Systems), soluble protein was added to PA solutions after thermal annealing. 120 μL of PA/cell solution was mixed thoroughly by pipetting gently and then placed into PDL-coated 12-well chamber slides (Ibidi). Sterile gelling solution, comprised of 110 mM NaCl, 3 mM KCl, and 25 mM CaCl2, was pipetted dropwise on top of the PA/cell solution and the gels were incubated for 30 minutes at 37° C. Following incubation, excess gelling solution was removed and 250 μL of growth media was added to each well. The media was removed after 3 days for LDH viability assays as described above. For ICC, after 3 days of in vitro culture, gels were fixed in 4% paraformaldehyde for 30 minutes at room temperature.

[3] = Fluorescence anisotropy of TAMRA-labeled epitopes; format: physicochemical; conditions: 10 mol % co-assembly
Protocol: PA co-assemblies of diluent PA, TGF-β1 mimetic PA, and fluorescent dye-conjugated TGF-β1 mimetic PA were prepared in a 90:8:2 mol % ratio. The dye-conjugated PA was synthesized as previously described with a tetramethylrhodamine (TAMRA) molecule conjugated to the N-terminal amine of the TGF-β1 mimetic epitope. The PA solutions were prepared as previously described and diluted immediately before measurement to 100 μM PA, 100 μM CaCl2), and 30 mM NaCl. Fluorescence measurements were performed on an ISS PC1 photon counting steady-state fluorescence spectrometer equipped with a 300 W xenon arc lamp with power set to 18 A. Excitation slit widths of 1 mm (8 nm bandwidth) and emission slit widths of 0.5 mm (4 nm bandwidth) were used. Fluorescence anisotropy measurements were performed with λex=554 nm and λem=580 nm according to the equation:
[formula] Where F∥ is the intensity parallel to the excitation plane, F⊥ is the intensity perpendicular to the excitation plane, and g is the g-factor, which accounts for differences in emissions between the perpendicular and parallel gratings.^1 Measurements were taken in triplicate and averaged for final data analysis. Transverse-Relaxation Nuclear Magnetic Resonance Spectroscopy

[4] = system: collagen II, COMP, aggrecan and Sox9 in human chondrocytes; test: Western blot of ECM proteins after three days treatment; format: cell-based; conditions: 10 μM, three days in vitro
Protocol: as §1, §2

[5] = system: C28/I2 human articular chondrocytes
Protocol: PA solutions (backbone PA, TGF PA, ln TGF PA, and peptide only) were prepared at 1 wt % as previously described, under sterile conditions. For cell treatments lasting <24 h, PA treatment solutions or native rhTGF-β1 protein (R&D Systems) were diluted in starvation medium, which comprised of DMEM High Glucose Medium (Gibco) supplemented with 0.5% fetal bovine serum (Denville Scientific), 100 U/mL penicillin, and 100 μg/mL streptomycin (Gibco). For cell treatments lasting 24 h or more, PA treatment solutions or native rhTGF-β1 protein (R&D Systems) were diluted in complete growth medium. PA solutions were prepared at a range of concentrations, 1, 10, 50, and 100 μM, where the concentration refers to the concentration of the epitope PA.
For cell viability assays, cells were seeded in 48-well plates at a density of approximately 15,400 cells/well and cultured for 24 h. Cells were then treated with PA in solution for 24 h or 3 days in vitro.
For 2D viability assays, cells were cultured and treated with PA solutions in vitro as previously described. After 24 h or 3 days of culture, cells were washed with HBSS (Gibco), and media was exchanged with HBSS containing 2 μM Calcein AM (Invitrogen) and 100 ng/mL propidium iodide (Sigma-Aldrich) for 30 minutes at 37° C. Cells were washed with HBSS and imaged.

[6] = Rheology of PA hydrogels (strain sweep, G′/G″ crossover); format: physicochemical; conditions: PA gels, 10 mol % co-assemblies
Protocol: Gels were made using 2 wt % PA solutions prepared as previously described, using 10 mol % co-assemblies of epitope PA with diluent PA. 12-well chamber slides (Ibidi) were coated with 0.01 mg/mL poly-D-lysine (Sigma-Aldrich) solution and incubated overnight at 37° C. The wells were washed three times with water and air-dried for at least 30 minutes. 120 μL of PA solution was pipetted evenly into the well and gelling solution comprised of 110 mM NaCl, 3 mM KCl, and 25 mM CaCl2 was pipetted dropwise on top of the PA solution. The gels were incubated at 37° C. for 30 minutes, and then excess gelling solution was removed.
Measurements were performed on an Anton Paar MCR302 rheometer with a 25 mm parallel-plate fixture. 120 μL of the PA/HA hybrid slurry was placed on the bottom plate and 30 μL of a 50 mM CaCl2/75 mM NaCl gelling solution was placed on the upper fixture. The fixture was lowered to a gap of 0.5 mm for 10 min during which time a 0.1% oscillatory strain was applied with a 10 rad/s angular frequency. The gap height was allowed to vary to keep the normal force at 0 N. Next, a strain sweep was performed at 10 rad/s from 0.1% to 100% strain to measure the strain to break the gel.

Substance: TGF PA-a: backbone PA-a (SEQ ID NO: 7) conjugated to cyclic TGF-β1 mimetic peptide (SEQ ID NO: 1) by a linker; co-assembled with diluent Backbone PA-a (chain Palmitoyl-AAEEK-OH; peptide CESPLKRQC; disulfide II:1-II:9; not fully specified (some residues); also: co-assembled with diluent backbone PA-a)
- p-Smad2 activation ([1]; 10 mol % co-assemblies): upregulated p-Smad2 significantly more than all other PA treatments
- p-Smad2 activation ([1]; 10 mol % co-assembly): strong p-Smad2 activation
- activation of p-Smad2 with addition of pan-TGF-β-neutralizing antibody 1D11 ([1]; with vs without 1D11): effectively neutralized
- significance of the neutralizing effect of 1D11 on p-Smad2 activation ([1]; with vs without 1D11): statistically significant
- morphology and distribution of encapsulated cells [2]: compact, elliptical morphologies and were well-dispersed
- cells within the bulk of the gel ([2]; equal concentrations of cells encapsulated): remained inside the gels and survived three days in vitro
- fluorescence anisotropy (epitope rotational diffusion), compared to TGF PA-b [3]: significantly lower anisotropy values
- ECM synthesis (collagen II, COMP, aggrecan, Sox9) [4]: upregulated ECM synthesis significantly more than all other PA treatments
- levels of collagen II compared with native rhTGF-β1 protein [4]: significantly higher levels of collagen II
- biocompatibility compared with corresponding Backbone PA-b systems [5]: higher biocompatibility
- G′/G″ crossover % strain [6]: 5.80 ± 1.40%
- G′/G″ crossover storage modulus [6]: 0.63 ± 1.14 kPa
